{"source": "ChEMBL document CHEMBL1125711", "about": "“Flavins as potential antimalarials. 2. 3-Methyl-10-(substituted-phenyl) flavins” (J Med Chem, 1991)", "data": [{"test_system": "Mus musculus", "assay": "Increase in mean survival days was determined in mice after ip administration of 10 mg/kg", "format": "functional", "conditions": "route intraperitoneal", "units": {"Mean survival days": "days"}, "values": [{"molecule": "Cn1c(=O)nc2n(-c3ccccc3)c3ccccc3nc-2c1=O", "Mean survival days": 0}, {"molecule": "Cn1c(=O)nc2n(-c3cc(C(F)(F)F)cc(C(F)(F)F)c3)c3ccccc3nc-2c1=O", "Mean survival days": 0}, {"molecule": "Cn1c(=O)nc2n(-c3ccc(Cl)cc3)c3ccccc3nc-2c1=O", "Mean survival days": 0.3}, {"molecule": "Cc1ccccc1-n1c2nc(=O)n(C)c(=O)c-2nc2ccccc21", "Mean survival days": -0.2}, {"molecule": "Cn1c(=O)nc2n(-c3ccc(F)cc3)c3ccccc3nc-2c1=O", "Mean survival days": 0}]}, {"test_system": "Mus musculus", "assay": "Increase in mean survival days was determined in mice after ip administration of 15 mg/kg", "format": "functional", "conditions": "route intraperitoneal", "units": {"Mean survival days": "days"}, "values": [{"molecule": "Cn1c(=O)nc2n(-c3ccc(Cl)cc3)c3ccccc3nc-2c1=O", "Mean survival days": 4}, {"molecule": "Cn1c(=O)nc2n(-c3ccc(F)cc3)c3ccccc3nc-2c1=O", "Mean survival days": 0}]}, {"test_system": "Mus musculus", "assay": "Increase in mean survival days was determined in mice after ip administration of 20 mg/kg", "format": "functional", "conditions": "route intraperitoneal", "units": {"Mean survival days": "days"}, "values": [{"molecule": "Cn1c(=O)nc2n(-c3cc(C(F)(F)F)cc(C(F)(F)F)c3)c3ccccc3nc-2c1=O", "Mean survival days": 0}, {"molecule": "Cn1c(=O)nc2n(-c3ccc(F)cc3)c3ccccc3nc-2c1=O", "Mean survival days": 13.4}]}, {"test_system": "Mus musculus", "assay": "Increase in mean survival days was determined in mice after ip administration of 20 mg/kg; toxic", "format": "functional", "conditions": "route intraperitoneal", "units": {"Mean survival days": "days"}, "values": [{"molecule": "Cc1ccccc1-n1c2nc(=O)n(C)c(=O)c-2nc2ccccc21", "Mean survival days": -1}]}, {"test_system": "Mus musculus", "assay": "Increase in mean survival days was determined in mice after ip administration of 30 mg/kg", "format": "functional", "conditions": "route intraperitoneal", "units": {"Mean survival days": "days"}, "values": [{"molecule": "Cn1c(=O)nc2n(-c3ccccc3)c3ccccc3nc-2c1=O", "Mean survival days": 0}, {"molecule": "Cn1c(=O)nc2n(-c3cc(C(F)(F)F)cc(C(F)(F)F)c3)c3ccccc3nc-2c1=O", "Mean survival days": 0}, {"molecule": "Cn1c(=O)nc2n(-c3ccc(F)cc3)c3ccccc3nc-2c1=O", "Mean survival days": 0}]}, {"test_system": "Mus musculus", "assay": "Increase in mean survival days was determined in mice after ip administration of 30 mg/kg; toxic", "format": "functional", "conditions": "route intraperitoneal", "units": {"Mean survival days": "days"}, "values": [{"molecule": "Cc1ccccc1-n1c2nc(=O)n(C)c(=O)c-2nc2ccccc21", "Mean survival days": -2}]}, {"test_system": "Mus musculus", "assay": "Increase in mean survival days was determined in mice after ip administration of 40 mg/kg", "format": "functional", "conditions": "route intraperitoneal", "units": {"Mean survival days": "days"}, "values": [{"molecule": "Cn1c(=O)nc2n(-c3ccc(F)cc3)c3ccccc3nc-2c1=O", "Mean survival days": 0}]}, {"test_system": "Mus musculus", "assay": "Increase in mean survival days was determined in mice after ip administration of 50 mg/kg", "format": "functional", "conditions": "route intraperitoneal", "units": {"Mean survival days": "days"}, "values": [{"molecule": "Cn1c(=O)nc2n(-c3ccccc3)c3ccccc3nc-2c1=O", "Mean survival days": 0.3}, {"molecule": "Cn1c(=O)nc2n(-c3cc(C(F)(F)F)cc(C(F)(F)F)c3)c3ccccc3nc-2c1=O", "Mean survival days": 0}, {"molecule": "Cn1c(=O)nc2n(-c3ccc(F)cc3)c3ccccc3nc-2c1=O", "Mean survival days": -0.5}]}, {"test_system": "Mus musculus", "assay": "Increase in mean survival days was determined in mice after ip administration of 50 mg/kg; toxic", "format": "functional", "conditions": "route intraperitoneal", "units": {"Mean survival days": "days"}, "values": [{"molecule": "Cn1c(=O)nc2n(-c3ccc(Cl)cc3)c3ccccc3nc-2c1=O", "Mean survival days": -0.8}]}, {"test_system": "Mus musculus", "assay": "Increase in mean survival days was determined in mice after ip administration of 60 mg/kg", "format": "functional", "conditions": "route intraperitoneal", "units": {"Mean survival days": "days"}, "values": [{"molecule": "Cn1c(=O)nc2n(-c3ccccc3)c3ccccc3nc-2c1=O", "Mean survival days": 0.5}]}, {"test_system": "Plasmodium vinckei vinckei", "assay": "Increase in mean survival days of Plasmodium inoculated mice (Mus musculus) after 70 mg/Kg intraperitoneal dose", "format": "functional", "conditions": "not given", "units": {"Mean survival days": "days"}, "values": [{"molecule": "Cn1c(=O)nc2n(-c3ccccc3)c3ccccc3nc-2c1=O", "Mean survival days": 1}, {"molecule": "Cn1c(=O)nc2n(-c3cc(C(F)(F)F)cc(C(F)(F)F)c3)c3ccccc3nc-2c1=O", "Mean survival days": 0}]}, {"test_system": "Mus musculus", "assay": "Increase in mean survival days was determined in mice after ip administration of 70 mg/kg; toxic", "format": "functional", "conditions": "route intraperitoneal", "units": {"Mean survival days": "days"}, "values": [{"molecule": "Cn1c(=O)nc2n(-c3ccc(Cl)cc3)c3ccccc3nc-2c1=O", "Mean survival days": -1}, {"molecule": "Cn1c(=O)nc2n(-c3ccc(F)cc3)c3ccccc3nc-2c1=O", "Mean survival days": -0.6}]}, {"organism": "Mus musculus", "assay": "Effective dose required to obtain a parasitaemia of 40% 48 hours after treatment in mice", "format": "functional", "conditions": "not given", "units": {"ED40": "µmol/kg"}, "values": [{"molecule": "Cn1c(=O)nc2n(-c3ccc(Cl)cc3)c3ccccc3nc-2c1=O", "ED40": 38.8}, {"molecule": "Cn1c(=O)nc2n(-c3ccc(F)cc3)c3ccccc3nc-2c1=O", "ED40": 103}]}, {"organism": "Mus musculus", "assay": "Effective dose required to obtain a parasitaemia of 40% 48 hours after treatment in mice.", "format": "functional", "conditions": "not given", "units": {"ED40": "nM/kg"}, "values": [{"molecule": "Cn1c(=O)nc2n(-c3ccccc3)c3ccccc3nc-2c1=O", "ED40": 248}]}, {"test_system": "Mus musculus", "assay": "Antimalarial activity was evaluated against Plasmodium vinckei V52 after intraperitoneal administration at dose 30 mg/kg", "format": "functional", "conditions": "not given", "units": {"Cured": "%"}, "values": [{"molecule": "Cn1c(=O)nc2n(-c3cc(C(F)(F)F)cc(C(F)(F)F)c3)c3ccccc3nc-2c1=O", "Cured": 0}]}, {"test_system": "Mus musculus", "assay": "Antimalarial activity was evaluated against Plasmodium vinckei vinckeii V52 after intraperitoneal administration at dose 40 mg/kg", "format": "functional", "conditions": "not given", "units": {"Cured": "%"}, "values": [{"molecule": "Cn1c(=O)nc2n(-c3ccc(Cl)cc3)c3ccccc3nc-2c1=O", "Cured": 100}]}, {"test_system": "Mus musculus", "assay": "Antimalarial activity was evaluated against Plasmodium vinckei vinckeii V52 after intraperitoneal administration at dose 50 mg/kg", "format": "functional", "conditions": "not given", "units": {"Cured": "%"}, "values": [{"molecule": "Cn1c(=O)nc2n(-c3cc(C(F)(F)F)cc(C(F)(F)F)c3)c3ccccc3nc-2c1=O", "Cured": 0}]}, {"test_system": "Plasmodium vinckei vinckei", "assay": "Antimalarial activity against Plasmodium vinckei V52 on 10 mg/kg intraperitoneal dose", "format": "functional", "conditions": "not given", "units": {"Cured": "%"}, "values": [{"molecule": "Cn1c(=O)nc2n(-c3ccccc3)c3ccccc3nc-2c1=O", "Cured": 0}, {"molecule": "Cn1c(=O)nc2n(-c3ccc(Cl)cc3)c3ccccc3nc-2c1=O", "Cured": 20}, {"molecule": "Cc1ccccc1-n1c2nc(=O)n(C)c(=O)c-2nc2ccccc21", "Cured": 0}, {"molecule": "Cn1c(=O)nc2n(-c3ccc(F)cc3)c3ccccc3nc-2c1=O", "Cured": 0}]}, {"test_system": "Mus musculus", "assay": "Antimalarial activity was evaluated against Plasmodium vinckei V52 after intraperitoneal administration at dose 15 mg/kg", "format": "functional", "conditions": "not given", "units": {"Cured": "%"}, "values": [{"molecule": "Cn1c(=O)nc2n(-c3ccc(Cl)cc3)c3ccccc3nc-2c1=O", "Cured": 80}, {"molecule": "Cn1c(=O)nc2n(-c3ccc(F)cc3)c3ccccc3nc-2c1=O", "Cured": 0}]}, {"test_system": "Mus musculus", "assay": "Antimalarial activity was evaluated against Plasmodium vinckei V52 after intraperitoneal administration at dose 20 mg/kg", "format": "functional", "conditions": "not given", "units": {"Cured": "%"}, "values": [{"molecule": "Cn1c(=O)nc2n(-c3cc(C(F)(F)F)cc(C(F)(F)F)c3)c3ccccc3nc-2c1=O", "Cured": 0}]}, {"test_system": "Mus musculus", "assay": "Antimalarial activity was evaluated against Plasmodium vinckei V52 after intraperitoneal administration at dose 25 mg/kg", "format": "functional", "conditions": "not given", "units": {"Cured": "%"}, "values": [{"molecule": "Cn1c(=O)nc2n(-c3ccc(Cl)cc3)c3ccccc3nc-2c1=O", "Cured": 100}]}, {"test_system": "Plasmodium vinckei vinckei", "assay": "Antimalarial activity against Plasmodium vinckei V52 on 30 mg/kg intraperitoneal dose", "format": "functional", "conditions": "not given", "units": {"Cured": "%"}, "values": [{"molecule": "Cn1c(=O)nc2n(-c3ccccc3)c3ccccc3nc-2c1=O", "Cured": 0}, {"molecule": "Cn1c(=O)nc2n(-c3ccc(Cl)cc3)c3ccccc3nc-2c1=O", "Cured": 100}, {"molecule": "Cc1ccccc1-n1c2nc(=O)n(C)c(=O)c-2nc2ccccc21", "Cured": 0}, {"molecule": "Cn1c(=O)nc2n(-c3ccc(F)cc3)c3ccccc3nc-2c1=O", "Cured": 80}]}, {"test_system": "Mus musculus", "assay": "Antimalarial activity was evaluated against Plasmodium vinckei vinckei V52 after intraperitoneal administration at dose 40 mg/kg.", "format": "functional", "conditions": "not given", "units": {"Cured": "%"}, "values": [{"molecule": "Cn1c(=O)nc2n(-c3ccc(F)cc3)c3ccccc3nc-2c1=O", "Cured": 80}]}, {"test_system": "Mus musculus", "assay": "Antimalarial activity was evaluated against Plasmodium vinckei V52 after intraperitoneal administration at dose 50 mg/kg", "format": "functional", "conditions": "not given", "units": {"Cured": "%"}, "values": [{"molecule": "Cn1c(=O)nc2n(-c3ccccc3)c3ccccc3nc-2c1=O", "Cured": 0}, {"molecule": "Cn1c(=O)nc2n(-c3ccc(F)cc3)c3ccccc3nc-2c1=O", "Cured": 20}]}, {"test_system": "Mus musculus", "assay": "Antimalarial activity was evaluated against Plasmodium vinckei vinckei V52 after intraperitoneal administration at dose 50 mg/kg.", "format": "functional", "conditions": "not given", "units": {"Cured": "%"}, "values": [{"molecule": "Cn1c(=O)nc2n(-c3ccc(Cl)cc3)c3ccccc3nc-2c1=O", "Cured": 20}]}, {"test_system": "Mus musculus", "assay": "Antimalarial activity was evaluated against Plasmodium vinckei V52 after intraperitoneal administration at dose 60 mg/kg", "format": "functional", "conditions": "not given", "units": {"Cured": "%"}, "values": [{"molecule": "Cn1c(=O)nc2n(-c3ccccc3)c3ccccc3nc-2c1=O", "Cured": 20}]}, {"test_system": "Mus musculus", "assay": "Antimalarial activity was evaluated against Plasmodium vinckei V52 after intraperitoneal administration at dose 70 mg/kg", "format": "functional", "conditions": "not given", "units": {"Cured": "%"}, "values": [{"molecule": "Cn1c(=O)nc2n(-c3cc(C(F)(F)F)cc(C(F)(F)F)c3)c3ccccc3nc-2c1=O", "Cured": 0}]}, {"test_system": "Plasmodium vinckei vinckei", "assay": "Antimalarial activity against Plasmodium vinckei V52 on 70 mg/kg intraperitoneal dose", "format": "functional", "conditions": "not given", "units": {"Cured": "%"}, "values": [{"molecule": "Cn1c(=O)nc2n(-c3ccccc3)c3ccccc3nc-2c1=O", "Cured": 60}, {"molecule": "Cn1c(=O)nc2n(-c3ccc(Cl)cc3)c3ccccc3nc-2c1=O", "Cured": 0}, {"molecule": "Cn1c(=O)nc2n(-c3ccc(F)cc3)c3ccccc3nc-2c1=O", "Cured": 0}]}, {"test_system": "Mus musculus", "assay": "Antimalarial activity was evaluated against Plasmodium vinckei V52 after intraperitoneal administration at dose 10 mg/kg", "format": "functional", "conditions": "not given", "units": {"Cured": "%"}, "values": [{"molecule": "Cn1c(=O)nc2n(-c3cc(C(F)(F)F)cc(C(F)(F)F)c3)c3ccccc3nc-2c1=O", "Cured": 0}]}, {"test_system": "Plasmodium vinckei vinckei", "assay": "Antimalarial activity against Plasmodium vinckei V52 after 20 mg/kg intraperitoneal dose", "format": "functional", "conditions": "not given", "units": {"Cured": "%"}, "values": [{"molecule": "Cn1c(=O)nc2n(-c3ccc(Cl)cc3)c3ccccc3nc-2c1=O", "Cured": 100}, {"molecule": "Cc1ccccc1-n1c2nc(=O)n(C)c(=O)c-2nc2ccccc21", "Cured": 0}, {"molecule": "Cn1c(=O)nc2n(-c3ccc(F)cc3)c3ccccc3nc-2c1=O", "Cured": 0}]}]}
